US11795213B2, “Methods and compositions for treating celiac disease” (Beth Israel Deaconess Medical Center, Inc., priority 2010, dated 2023)
One block for each molecule: values may come before it.

Tests used:
celiac biopsies = conditions: shown previously; cited from earlier work
THP-1 = test: Cytokine secretion by stimulated THP-1 monocytic cells (ELISA); format: cell-based, human
Excerpt: (§1) To examine how far gliadin elicits innate immune responses, we stimulated the human monocytic cell lines THP-1 and U937 with different concentrations of gliadin digested with pepsin and trypsin (PT gliadin) and measured secretion of proinflammatory cytokines in the supernatant. A digest of zein, partly homolgous storage proteins from corn that lack toxicity for patients with celiac disease, served as negative control. […] To rule out LPS contamination as trigger of innate responses, gliadin, LPS, and TNF-α were digested with proteinase K, completely digesting and abrogating all peptide-related activities.
(§2) THP-1, U937, HEK-293 (all from ATCC, Manassas, VA), and HEK-293 cells stably transfected with the TLR4-CD14-MD2 complex (Invivogen) were cultured in complete RPM or DMEM (Cellgro, Manassas, VA) supplemented with penicillin/streptomycin and 10% fetal calf serum at 37° C. in a 5% CO2 atmosphere.
(§3) For stimulation cells were seeded on polystyrene wells at a density of 1×10^6/ml. Unless otherwise stated supernatants were harvested after a 16 hr incubation with various stimulants.
After proteinase K inactivation by boiling for 5 minute the digests were used for cell stimulation.
(§4) The concentration of IL-8, TNF-α, MCP-1, RANTES, and mouse IL-8 (KC) in cell culture supernatants and serum samples was determined using validated ELISAs (IL-8, hTNFα: BD Pharmingen, San Jose, CA; MCP-1, hRANTES, mRANTES, KC: R&D Systems, (Minneapolis, MN; mTNFα: eBioscience, San Diego, CA), according to the manufacturer's protocols.

[1] = test system: intestinal epithelial cell lines (HT29, Caco-2 and T84); test: Cytokine secretion by intestinal epithelial cell lines; format: cell-based; conditions: even at 40 μg/ml
Experimental: as §3, §4

U937 = test: Cytokine secretion by stimulated U937 monocytic cells (ELISA); format: cell-based, human; conditions: even at 40 μg/ml
Excerpt: as §1, §2, §3, §4

[2] = biological target: T1, human TLR4-CD14-MD2-complex (Homo sapiens, UniProt O00206+Q9Y6Y9); test: IL-8 secretion by HEK-293 cells transfected with TLR4-CD14-MD2 complex; format: cell-based; conditions: for IL-8 secretion: TLR4-CD14-MD2 transfected HEK-293; for stimulatory activity after additional purification using an endotoxin depletion column: 5 μg/ml, IL-8 after 24 h, FIG. 9C
T1 construct: host or cells: HEK-293 (stably transfected)
T1 sequence (O00206 24-839): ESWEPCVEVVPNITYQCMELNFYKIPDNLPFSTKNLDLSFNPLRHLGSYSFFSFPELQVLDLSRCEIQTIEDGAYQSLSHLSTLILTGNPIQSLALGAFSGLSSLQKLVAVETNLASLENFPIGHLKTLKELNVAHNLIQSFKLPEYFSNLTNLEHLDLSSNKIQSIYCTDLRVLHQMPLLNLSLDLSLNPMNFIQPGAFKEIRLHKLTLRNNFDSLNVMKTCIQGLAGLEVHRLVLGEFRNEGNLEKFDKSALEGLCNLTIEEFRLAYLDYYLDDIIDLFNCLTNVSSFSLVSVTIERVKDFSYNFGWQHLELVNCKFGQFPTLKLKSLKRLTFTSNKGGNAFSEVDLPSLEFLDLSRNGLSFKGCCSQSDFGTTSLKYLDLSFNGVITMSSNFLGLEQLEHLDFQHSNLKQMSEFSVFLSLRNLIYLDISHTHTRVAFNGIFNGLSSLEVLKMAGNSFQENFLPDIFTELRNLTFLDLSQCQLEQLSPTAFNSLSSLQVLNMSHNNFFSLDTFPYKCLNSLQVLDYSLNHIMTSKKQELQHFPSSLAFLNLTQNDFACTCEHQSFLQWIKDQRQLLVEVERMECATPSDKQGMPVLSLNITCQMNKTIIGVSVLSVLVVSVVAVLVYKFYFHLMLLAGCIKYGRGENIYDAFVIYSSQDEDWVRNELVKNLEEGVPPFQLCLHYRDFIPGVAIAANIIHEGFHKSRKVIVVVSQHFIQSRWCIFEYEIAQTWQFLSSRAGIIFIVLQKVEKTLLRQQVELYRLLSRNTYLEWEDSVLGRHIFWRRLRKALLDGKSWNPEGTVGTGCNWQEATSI
T1 sequence (Q9Y6Y9 17-160 limits assumed): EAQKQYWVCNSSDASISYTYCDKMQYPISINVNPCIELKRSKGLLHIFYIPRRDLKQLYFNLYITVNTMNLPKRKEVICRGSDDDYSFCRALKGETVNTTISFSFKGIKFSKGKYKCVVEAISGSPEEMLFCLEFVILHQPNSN
Experimental: as §2, §3, §4
While sufficient CM3 protein was secreted into the media, 0.19 ATI had to be isolated from the detergent-soluble fraction. Briefly, HEK-cells expressing 0.19 were washed with ice cold-PBS, resuspended in 50 ml of buffer C for 15 min on ice, and centrifuged at 14,000 rpm for 20 min at 4° C. Thus, the solubilized 0.19 and soluble CM3 were bound to Flag-M2 agarose (Sigma-Aldrich) pre-equilibrated with buffer C by gentle shaking for 3 h at 4° C., washed three times with buffer C, and further washed three times with buffer D (Buffer C without detergents). Bound ATIs were eluted with TBS [pH 7.4] containing Flag peptide (Sigma-Aldrich). In order to rigorously exclude endotoxin, eluted CM3 and 0.19 were also applied to an entotoxin removal column (Norgen Biotek corp., Thorold, ON, Canada). ATIs were the used at 5 μg/ml to stimulate HEK-293 cells stably transfected with the TLR4-CD14-MD2 complex, and IL-8 secretion was quantified after 24 h using the IL-8 ELISA as described above.

[3] = test system: peritoneal macrophages of C3H/HeJ mice that lack TLR4 responses; test: Cytokine secretion by peritoneal macrophages of TLR4 deficient C3H/HeJ versus C3H/HeOuJ mice; format: cell-based, mouse; conditions: TLR4 deficient C3H/HeJ compared to syngenic C3H/HeOuJ TLR4 competent mice
Experimental: Since MyD88 transmits signals from several TLRs, we studied peritoneal macrophages of C3H/HeJ mice that lack TLR4 responses due to a spontaneous point mutation in the TLR4 gene.
Murine resident peritoneal macrophages were isolated by peritoneal lavage using a 3 ml syringe and 18 G needles. Three 3 ml of sterile PBS was injected into the peritoneal cavity and reaspirated after gentle massage of the abdomen. For further purification MACS separation for CD11b positive cells was done according to the manufacturer's protocol (Miltenyi).
as §3
C3H/HeJ, C3H/HeOuJ and Rag1−/− mice were obtained from The Jackson Laboratory (Bar Harbour, ME). The MyD88−/− mice were a kind gift from S. Akira, (Osaka University, Osaka, Japan). Congenic C57BL/6J mice served as experimental controls and were bred under the same conditions in the same facility. All experiments were done with mice at age 5-7 weeks.
as §4

TLR4-pathway = test: Downstream signaling by CM3 and 0.19 overexpression in TLR4-CD14-MD2 expressing HEK-293 cells (Western blot); format: cell-based; conditions: overexpression in TLR4/MD2/CD14 expressing HEK-293 cells
Experimental: FIG. 9D is a western blot showing expression of CM3 and 0.19 in TLR4-CD14-MD2 expressing HEK-293 cells (HEK-TLR4) induces downstream signaling of the canonical (p-NF-κB/p65) and the alternative (p-IRF3) pathways. Western blots of whole cell lysates (50 μg protein).
HEK-293 cells stably expressing TLR4-CD14-MD2 were induced to express CM3 or 0.19, respectively, followed by cell lysis in buffer C. Lysates were cleared by centrifugation at 14,000 rpm for 20 min at 4° C., and 50 μg of protein run on a 15% SDS-gel and subjected to Western blotting to analyze activation of the canonical and the alternative (p-IRF3) pathways using antibodies to phosphorylated and unphosphorylated (p-NF-κB/p65) and IRF3 (all from Cell Signaling Technology, Danvers, MA).

[4] = test system: human monocyte-derived dendritic cells (DC); test: Cytokine secretion by human monocyte-derived dendritic cells (ELISA); format: cell-based
Experimental: For isolation of peripheral monocytes 40 ml blood was obtained from 11 patients with celiac disease during their diagnostic workup (median 37 years, range 18-59 years), after prior informed consent Eight patients were on gluten free diet and in clinical remission, three patients were newly diagnosed and therefore on a regular gluten containing diet Control monocytes were from the buffy coat of leukopheresis concentrates of anonymous blood donors. Whole EDTA blood or leukapheresis concentrates were subjected to density gradient centrifugation over Ficoll-Hypaque (GE Healthcare, Pittsburgh, PA) and CD14-positive monocytes purified by MACS separation according to the manufacturer's protocol (Miltenyi, Bergisch Gladbach, Germany). For generation of dendritic cells, monocytes were cultured in RPMI supplemented with 10% fetal calf serum, 200 U/ml rhIL-4 and 300 U/ml rhGM-CSF (both from PeproTech, Rocky Hill, NJ) for 6-8 days.
For stimulation cells were seeded on polystyrene wells at a density of 1×10^6/ml. […]
as §4

Molecule: LGQQQPFPPQQPY [p31-43, Peptide p31-43 of α-gliadin]
IL-15 secretion (celiac biopsies): increases IL-15 secretion | IL-8 secretion (THP-1; even at 40 μg/ml): did not elicit secretion | MCP-1 secretion (THP-1; even at 40 μg/ml): did not elicit secretion | TNF-α secretion (THP-1; even at 40 μg/ml): did not elicit secretion | IL-8 secretion [1]: did not elicit secretion | MCP-1 secretion [1]: did not elicit secretion | TNF-α secretion [1]: did not elicit secretion | IL-8 secretion (U937): did not elicit secretion | MCP-1 secretion (U937): did not elicit secretion | TNF-α secretion (U937): did not elicit secretion

IL-8 secretion [2]: absence of IL-8 induction
Molecule: N-Palmitoyl-S-[2,3-bis(palmitoyloxy)-(2RS)-propyl]-[R]-cysteinyl-[S]-seryl-[S]-lysyl-[S]-lysyl-[S]-lysyl-[S]-lysine x3 HCl [Pam3CSK4]
KC (IL-8) secretion [3]: equally high amounts | TNF-α secretion [3]: equally high amounts

Molecule: TNF-α
IL-8 induction after proteinase K digestion of the stimulant (THP-1; 20 μg/ml proteinase K, 4 hrs at 56° C., FIG. 1F): lost its stimulatory capacity

IL-8 secretion [2]: stimulated
B1: 0.19: recombinant flag-tagged wheat alpha amylase inhibitor 0.19 (SEQ ID NO: 2) expressed in HEK-293 cells (protein, listed as Triticum aestivum)
chain: SGPWMCYPGQAFQVPALPACRPLLRLQCNGSQVPEAVLRDCCQQLAHISEWCRCGALYSMLDSMYKEHGAQEGQAGTGAFPRCRREVVKLTAASITAVCRLPIVVDASGDGAYVCKDVAAYPD
modifications: FLAG tag
stimulatory activity after additional purification using an endotoxin depletion column [2]: maintained | alternative TLR4-pathway (p-IRF3) (TLR4-pathway): strongly induced | canonical TLR4-pathway (p-NF-κB/p65) (TLR4-pathway): strongly induced

IL-8 secretion [2]: stimulated
B2: CM3: recombinant flag-tagged wheat alpha amylase inhibitor CM3 (SEQ ID NO: 1) expressed in HEK-293 cells (protein)
chain: MACKSSCSLLLLAAVLLSVLAAASASGSCVPGVAFRTNLLPHCRDYVLQQTCGTFTPGSLPEWMTSASIYSPGKPYLAKLYCCQELAEISQQCRCEALRYFIALPVPSQPVDPRSGNVGESGLIDLPGCPREMQWDFVRLLVAPGQCNLATIHNVRYCPAVEQPLWIDYKDDDDK
modifications: FLAG tag
stimulatory activity after additional purification using an endotoxin depletion column [2]: maintained | alternative TLR4-pathway (p-IRF3) (TLR4-pathway): strongly induced | canonical TLR4-pathway (p-NF-κB/p65) (TLR4-pathway): strongly induced | IL-8 secretion [4]: upregulated IL-8 secretion
